Results published in patent US5041567A, “Antibacterial monic acid derivatives” (Beecham Group plc, priority 1982, dated 1991).
In brackets after ≈: the same amount, converted by molar mass. Like-named read-outs stand apart in the source and are kept apart here.

How the values were obtained:
M. suipneumoniae NB12 = experiment: MIC against mycoplasma in vitro; type: cell-based; conditions: Mesomycoplasma hyopneumoniae
M. suipneumoniae JF 435 = experiment: MIC against mycoplasma in vitro; type: cell-based; conditions: Mesomycoplasma hyopneumoniae, JF435, 144 h
M. suipneumoniae Str. 11 = experiment: MIC against mycoplasma in vitro; type: cell-based; conditions: Mesomycoplasma hyopneumoniae
M. suipneumoniae MS 16 = experiment: MIC against mycoplasma in vitro; type: cell-based; conditions: Mesomycoplasma hyopneumoniae, MS16, 144 h
[1] = system: M. suipneumoniae PW/C/210; experiment: MIC against mycoplasma in vitro; type: cell-based; conditions: Mesomycoplasma hyopneumoniae, 144 h
M. suipneumoniae UCD 1 = experiment: MIC against mycoplasma in vitro; type: cell-based; conditions: Mesomycoplasma hyopneumoniae, UCD1, 144 h
M. suipneumoniae TAM 6N = experiment: MIC against mycoplasma in vitro; type: cell-based; conditions: Mesomycoplasma hyopneumoniae, TAM6N, 144 h
[2] = system: M. suipneumoniae ATCC 25095; experiment: MIC against mycoplasma in vitro; type: cell-based; conditions: Mesomycoplasma hyopneumoniae, ATCC25095, 144 h
[3] = system: M. suipneumoniae NCTC 10110; experiment: MIC against mycoplasma in vitro; type: cell-based; conditions: Mesomycoplasma hyopneumoniae, NCTC10110, 144 h
M. hyorhinis ATCC 25021 = experiment: MIC against mycoplasma in vitro; type: cell-based; conditions: Mesomycoplasma hyorhinis, ATCC25021, 144 h
[4] = system: M. bovigenitalium ATCC 14173; experiment: MIC against mycoplasma in vitro; type: cell-based; conditions: 144 h
M. dispar NCTC 10125 = experiment: MIC against mycoplasma in vitro; type: cell-based; conditions: 144 h
M. gallisepticum S6 = experiment: MIC against mycoplasma in vitro; type: cell-based; conditions: Mycoplasmoides gallisepticum, 144 h; M. gallisepticum S6; 6 days, 37° C.; read-out: MIC
E. coli NCTC 10418 [5] = experiment: MIC against human bacteria in vitro; type: cell-based; conditions: Escherichia coli
P. mirabilis 889 = experiment: MIC against human bacteria in vitro; type: cell-based
[6] = system: Ps. aeruginosa NCTC 10662; experiment: MIC against human bacteria in vitro; type: cell-based; conditions: Pseudomonas aeruginosa, NCTC10662; Ps. aeruginosa NCTC 10662; 5% chocolated horse blood agar, 18 hours; read-out: MIC
[7] = system: Haemophilus influenzae Wy21; experiment: MIC against human bacteria in vitro; type: cell-based; conditions: Haemophilus influenzae Wy21; 5% chocolated horse blood agar, 18 hours; read-out: MIC
[8] = system: Neisseria catarrhalis 1502; experiment: MIC against human bacteria in vitro; type: cell-based; conditions: Neisseria catarrhalis 1502; 5% chocolated horse blood agar, 18 hours; read-out: MIC
[9] = system: Corynebacterium xerosis 9755; experiment: MIC against human bacteria in vitro; type: cell-based; conditions: Corynebacterium xerosis 9755; 5% chocolated horse blood agar, 18 hours; read-out: MIC
Sarcina lutea 8340 = experiment: MIC against human bacteria in vitro; type: cell-based; conditions: Micrococcus luteus; Sarcina lutea 8340; 5% chocolated horse blood agar, 18 hours; read-out: MIC
Staph. aureus Oxford = experiment: MIC against human bacteria in vitro; type: cell-based; conditions: Staphylococcus aureus; Staph. aureus Oxford; 5% chocolated horse blood agar, 18 hours; read-out: MIC
Staph. aureus Russell = experiment: MIC against human bacteria in vitro; type: cell-based; conditions: Staphylococcus aureus; Staph. aureus Russell; 5% chocolated horse blood agar, 18 hours; read-out: MIC
Staph. aureus W2827 = experiment: MIC against human bacteria in vitro; type: cell-based; conditions: Staphylococcus aureus; Staph. aureus W2827; 5% chocolated horse blood agar, 18 hours; read-out: MIC
[10] = system: Strep. pyogenes R80/421-A; experiment: MIC against human bacteria in vitro; type: cell-based; conditions: Streptococcus pyogenes; Strep. pyogenes R80/421-A; 5% chocolated horse blood agar, 18 hours; read-out: MIC
Strep. agalactiae 2788-B = experiment: MIC against human bacteria in vitro; type: cell-based; conditions: Streptococcus agalactiae; Strep. agalactiae 2788-B; 5% chocolated horse blood agar, 18 hours; read-out: MIC
Strep. pneumoniae CN33 = experiment: MIC against human bacteria in vitro; type: cell-based; conditions: Streptococcus pneumoniae
E. coli NCTC 10418 [11] = experiment: MIC against veterinary bacteria in vitro; conditions: Escherichia coli, NCTC10418, 18 h
Protocol: (§1) The activity of the compounds of the Examples against various veterinarily important bacteria, was assayed in vitro using two-fold serial dilutions in Diagnostic Sensitivity Test Agar inoculated with 10^4 organisms.

E. coli E1 = experiment: MIC against veterinary bacteria in vitro; conditions: Escherichia coli, E1, 18 h
Protocol: as §1

S. dublin S7 = experiment: MIC against veterinary bacteria in vitro; conditions: Salmonella enterica, S7, 18 h
Protocol: as §1

Past. multocida PA1 = experiment: MIC against veterinary bacteria in vitro; conditions: Pasteurella multocida, PA1, 18 h
Protocol: as §1

Past. multocida PA2 = experiment: MIC against veterinary bacteria in vitro; conditions: Pasteurella multocida, PA2, 18 h
Protocol: as §1

Past. haemolytica PA5 = experiment: MIC against veterinary bacteria in vitro; conditions: Mannheimia haemolytica, PA5, 18 h
Protocol: as §1

[12] = system: Staph. aureus 152 (pen. sens); experiment: MIC against veterinary bacteria in vitro; conditions: Staphylococcus aureus, 18 h
Protocol: as §1

[13] = system: Strep. suis (group D) SPS11; experiment: MIC against veterinary bacteria in vitro; conditions: Streptococcus suis, 18 h
Protocol: as §1

| SMILES | MIC (M. gallisepticum S6) [µg/mL] | MIC [6] [µg/mL] | MIC [7] [µg/mL] | MIC [8] [µg/mL] | MIC [9] [µg/mL] | MIC (Sarcina lutea 8340) [µg/mL] | MIC (Staph. aureus Oxford) [µg/mL] | MIC (Staph. aureus Russell) [µg/mL] | MIC (Staph. aureus W2827) [µg/mL] | MIC (Strep. agalactiae 2788-B) [µg/mL] | MIC (E. coli NCTC 10418 [11]) [µg/mL] | MIC (E. coli E1) [µg/mL] | MIC (S. dublin S7) [µg/mL] | MIC (Past. multocida PA1) [µg/mL] | MIC (Past. multocida PA2) [µg/mL] | MIC (Past. haemolytica PA5) [µg/mL] | MIC [12] [µg/mL] | MIC [13] [µg/mL] | further results |
| --- | --- | --- | --- | --- | --- | --- | --- | --- | --- | --- | --- | --- | --- | --- | --- | --- | --- | --- | --- |
| COc1ccc(-c2cnc(/C=C(\C)C[C@@H]3OC[C@H](C[C@@H]4O[C@H]4[C@@H](C)[C@H](C)O)[C@@H](O)[C@H]3O)o2)cc1 [Example 4, 5-p-methoxyphenyl-2-(1-normon-2-yl)oxazole A] | 2.5 (≈ 5.28 µM) | > 100 | 2.5 (≈ 5.28 µM) | 10 (≈ 21.1 µM) | > 100 | > 100 | 2.5 (≈ 5.28 µM) | 5 (≈ 10.6 µM) | 5 (≈ 10.6 µM) | 5 (≈ 10.6 µM) | > 80 | > 80 | > 80 | 5 (≈ 10.6 µM) | 5 (≈ 10.6 µM) | 40 (≈ 84.5 µM) | 5 (≈ 10.6 µM) | 20 (≈ 42.2 µM) | MIC (M. suipneumoniae NB12; NB12, 144 h): 0.5 µg/mL (≈ 1.06 µM); MIC (M. suipneumoniae JF 435): 1 µg/mL (≈ 2.11 µM); MIC (M. suipneumoniae Str. 11; STR.11, 144 h): 0.5 µg/mL (≈ 1.06 µM); MIC (M. suipneumoniae MS 16): 0.5 µg/mL (≈ 1.06 µM); MIC [1]: 0.5 µg/mL (≈ 1.06 µM); MIC (M. suipneumoniae UCD 1): 1 µg/mL (≈ 2.11 µM); MIC (M. suipneumoniae TAM 6N): 1 µg/mL (≈ 2.11 µM); MIC [2]: 0.5 µg/mL (≈ 1.06 µM); MIC [3]: 1 µg/mL (≈ 2.11 µM); MIC (M. hyorhinis ATCC 25021): 0.5 µg/mL (≈ 1.06 µM); MIC [4]: 0.05 µg/mL (≈ 0.106 µM); MIC (M. dispar NCTC 10125): 0.25 µg/mL (≈ 0.528 µM); MIC (E. coli NCTC 10418 [5]; NCTC10418, E. coli NCTC 10418, agar with 5% chocolated horse blood, 18 hours, 37° C., read-out: MIC): > 100 µg/mL; MIC (P. mirabilis 889; Proteus mirabilis, P. mirabilis 889, 5% chocolated horse blood agar, 18 hours, read-out: MIC): > 100 µg/mL; MIC [10]: 5 µg/mL (≈ 10.6 µM); MIC (Strep. pneumoniae CN33; Strep. pneumoniae CN33, 5% chocolated horse blood agar, 18 hours, read-out: MIC): 5 µg/mL (≈ 10.6 µM) |
| C/C(=C\c1nc(C)c(C)o1)C[C@@H]1OC[C@H](C[C@@H]2O[C@H]2[C@@H](C)[C@H](C)O)[C@@H](O)[C@H]1O [Example 39, 4,5-Dimethyl-2-(1-normon-2-yl)oxazole A] | > 10 | > 100 | 2.5 (≈ 6.32 µM) | 25 (≈ 63.2 µM) | > 100 | > 100 | 100 (≈ 253 µM) | > 100 | > 100 | > 100 | > 80 | > 80 | > 80 | 80 (≈ 202 µM) | 40 (≈ 101 µM) | 80 (≈ 202 µM) | > 80 | > 80 | MIC (M. suipneumoniae NB12; 144 h, M. suipneumoniae NB12, Friis broth, 0.9% agarose, 6 days, 37° C., read-out: MIC): > 10 µg/mL; MIC (M. suipneumoniae JF 435; M. suipneumoniae JF 435, 6 days, 37° C., read-out: MIC): > 10 µg/mL; MIC (M. suipneumoniae Str. 11; 144 h, M. suipneumoniae Str. 11, 6 days, 37° C., read-out: MIC): > 10 µg/mL; MIC (M. suipneumoniae MS 16; M. suipneumoniae MS 16, 6 days, 37° C., read-out: MIC): > 10 µg/mL; MIC ([1]; M. suipneumoniae PW/C/210, 6 days, 37° C., read-out: MIC): > 10 µg/mL; MIC (M. suipneumoniae UCD 1; M. suipneumoniae UCD 1, 6 days, 37° C., read-out: MIC): > 10 µg/mL; MIC (M. suipneumoniae TAM 6N; M. suipneumoniae TAM 6N, 6 days, 37° C., read-out: MIC): > 10 µg/mL; MIC ([2]; M. suipneumoniae ATCC 25095, 6 days, 37° C., read-out: MIC): > 10 µg/mL; MIC ([3]; M. suipneumoniae NCTC 10110, 6 days, 37° C., read-out: MIC): > 10 µg/mL; MIC (M. hyorhinis ATCC 25021; M. hyorhinis ATCC 25021, 6 days, 37° C., read-out: MIC): > 10 µg/mL; MIC ([4]; M. bovigenitalium ATCC 14173, 6 days, 37° C., read-out: MIC): 5 µg/mL (≈ 12.6 µM); MIC (M. dispar NCTC 10125; M. dispar NCTC 10125, 6 days, 37° C., read-out: MIC): > 10 µg/mL; MIC (E. coli NCTC 10418 [5]; NCTC10418, 18 h): > 100 µg/mL; MIC (P. mirabilis 889; Proteus mirabilis, 889, 18 h): > 100 µg/mL; MIC (Strep. pneumoniae CN33; CN33, 18 h): 100 µg/mL (≈ 253 µM) |
